In BindingDB's records for doi:10.1021/jm00397a017 (Beijing Medical University, 1988) one finds Ki data, which are given here for 16 compounds.

In this assay the target is T1, Dihydrofolate reductase (Escherichia coli (strain K12), UniProt P0ABQ4).
T1 sequence (P0ABQ4 whole entry): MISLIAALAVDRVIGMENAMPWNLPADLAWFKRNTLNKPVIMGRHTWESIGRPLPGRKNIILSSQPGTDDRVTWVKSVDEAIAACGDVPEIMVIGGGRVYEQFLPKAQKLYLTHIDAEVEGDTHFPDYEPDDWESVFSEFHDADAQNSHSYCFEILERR
Briefly: ChEBML_54731.
Description: Apparent inhibitory (log 1/Ki) activity against Escherichia coli dihydrofolate reductase
The Ki is a dissociation constant, usually derived from enzyme kinetics or from competition with a known ligand. A higher Ki goes with weaker binding. With `CCCOc1cc(Cc2cnc(N)nc2N)cc(Br)c1OC`, the affinity corresponds to a Ki of 1.1 nM.
As for `Nc1ncc(Cc2cc(OCc3ccccc3)cc(OCc3ccccc3)c2)c(N)n1`, the Ki was 1.7 nM.
For `COc1cc(Cc2cnc(N)nc2N)ccc1OCc1ccccc1` [5-(4-(benzyloxy)-3-methoxybenzyl)pyrimidine-2,4-diamine], the Ki came to 0.372 nM.
The compound `COc1ccc(Cc2cnc(N)nc2N)cc1OCc1ccccc1` [5-(3-Benzyloxy-4-methoxy-benzyl)-pyrimidine-2,4-diamine] gave an inhibition constant (Ki) of 0.0977 nM.
Then `COCCOc1cc(Cc2cnc(N)nc2N)ccc1OC`, with 1.8 nM.
`CCCCOc1cc(Cc2cnc(N)nc2N)cc(Br)c1OC` came in with a Ki of 1.1 nM.
As to `Nc1ncc(Cc2ccc(OCc3ccccc3)cc2)c(N)n1` [5-(4-(benzyloxy)benzyl)pyrimidine-2,4-diamine], the Ki was found to be 2 nM.
Compound `COc1ccc(Cc2cnc(N)nc2N)cc1OS(C)(=O)=O` registered a Ki of 1.1 nM.
Then `CCCOc1cc(Cc2cnc(N)nc2N)cc(OCC)c1`, with 3.2 nM.
For `CCOc1cc(Cc2cnc(N)nc2N)cc(OCC)c1` the value was 0.776 nM; for `CCCOc1cc(Cc2cnc(N)nc2N)cc(OCCC)c1`, 1.6 nM.
In the case of `COCCOc1ccc(Cc2cnc(N)nc2N)cc1OC`, the affinity, expressed as Ki, was 0.562 nM.
`CS(=O)(=O)Oc1ccc(Cc2cnc(N)nc2N)cc1` registered an inhibition constant (Ki) of 7.1 nM.
For `Cc1cc(C)cc(Cc2cnc(N)nc2N)c1`, the Ki came to 8.9 nM.
Then `COc1cc(Cc2cnc(N)nc2N)ccc1O`, with 0.891 nM; and `CCCCOc1ccc(Cc2cnc(N)nc2N)cc1OC`, with 0.977 nM.
